Assay results from patent US20070043024A1, “Azacyclic compounds as inhibitors of sensory neurone specific channels” (priority 2003, published 2007).
pIC50: −log10 of the molar value. Read-outs that look alike come from different tables or passages of the source.

Molecular target: T1, human Nav1.8 (hNav1.8) ion channel (Homo sapiens, UniProt Q9Y5Y9)
T1 construct: expressed in transfected cells
Experiment: Inhibition of human Nav1.8 stably expressed in SH-SY-5Y cells (membrane potential dye fluorescence assay)
Type: cell-based
Details: SH-SY-5Y hNav1.8 cells, inhibition of membrane depolarisation, FLIPR membrane potential dye, 250 nM TTX, test concentration range 100 μM-0.05 μM, read-out: IC50
Description: Inhibition of Human Nav1.8 Stably Expressed in SH-SY-5Y Cells
A SH-SY-5Y neuroblastoma cell line stably expressing the human […] (hNav1.8) ion channel was constructed. This cell line has been used to develop a medium to high throughput assay for determining the ability of test compounds to inhibit membrane depolarisation mediated via the hNav1.8 channel.
SH-SY-5Y hNav1.8 are grown in adherent monolayer culture using 50:50 Ham's F-12/EMEM tissue culture medium supplemented with 15% (v/v) foetal bovine serum; 2 mM L-glutamine, 1% NEAA and 600 μg·ml^−1 Geneticin sulphate. Cells are removed from the tissue culture flask using trypsin/EDTA and re-plated into black walled, clear bottom 96-well assay plates at 50,000 cells·well^−1 24 hours prior to assay.
On the day of assay the cell assay plates are washed to remove cell culture medium using a sodium free assay buffer (145 mM tetramethyl ammonium chloride; 2 mM calcium chloride; 0.8 mM magnesium chloride hexahydrate; 10 mM HEPES; 10 mM glucose; 5 mM potassium chloride, pH 7.4). Fluorescent membrane potential dye solution (FLIPR™ membrane potential dye, Molecular Devices Corporation), containing 10 μM of a pyrethroid to prevent channel inactivation and 250 nM tetrodotoxin (TTX) to reduce interference from TTX-sensitive sodium channels present in the cell line. Test compound, initially dissolved in dimethyl sulfoxide but further diluted in sodium free buffer, is added to achieve the final test concentration range of 100 μM-0.05 μM.
Cell plates are incubated for 30 minutes at room temperature to allow equilibration of dye and test compound. Plates are then transferred to a fluorescence plate reader for fluorescence measurement using an excitation wavelength of 530 nm whilst measuring fluorescence emission at 565 nm. Baseline fluorescence levels are first determined before the addition of a sodium containing buffer (220 mM sodium chloride; 2 mM calcium chloride; 0.8 mM magnesium chloride hexahydrate; […]; 10 mM glucose; 5 mM potassium chloride. pH 7.4) to cause membrane depolarisation in those cells where channel block has not been effected (final sodium concentration=72.5 mM). Membrane depolarisation is registered by an increase in fluorescence emission at 565 nm.
The change in fluorescence seen in each test well upon the addition of sodium containing buffer is calculated relative to the baseline fluorescence for that well. This figure is then used for calculating the IC50 for each test compound.

[1] = Table 2 (compound numbers of the list in the description)

T1 sequence (Q9Y5Y9 whole entry): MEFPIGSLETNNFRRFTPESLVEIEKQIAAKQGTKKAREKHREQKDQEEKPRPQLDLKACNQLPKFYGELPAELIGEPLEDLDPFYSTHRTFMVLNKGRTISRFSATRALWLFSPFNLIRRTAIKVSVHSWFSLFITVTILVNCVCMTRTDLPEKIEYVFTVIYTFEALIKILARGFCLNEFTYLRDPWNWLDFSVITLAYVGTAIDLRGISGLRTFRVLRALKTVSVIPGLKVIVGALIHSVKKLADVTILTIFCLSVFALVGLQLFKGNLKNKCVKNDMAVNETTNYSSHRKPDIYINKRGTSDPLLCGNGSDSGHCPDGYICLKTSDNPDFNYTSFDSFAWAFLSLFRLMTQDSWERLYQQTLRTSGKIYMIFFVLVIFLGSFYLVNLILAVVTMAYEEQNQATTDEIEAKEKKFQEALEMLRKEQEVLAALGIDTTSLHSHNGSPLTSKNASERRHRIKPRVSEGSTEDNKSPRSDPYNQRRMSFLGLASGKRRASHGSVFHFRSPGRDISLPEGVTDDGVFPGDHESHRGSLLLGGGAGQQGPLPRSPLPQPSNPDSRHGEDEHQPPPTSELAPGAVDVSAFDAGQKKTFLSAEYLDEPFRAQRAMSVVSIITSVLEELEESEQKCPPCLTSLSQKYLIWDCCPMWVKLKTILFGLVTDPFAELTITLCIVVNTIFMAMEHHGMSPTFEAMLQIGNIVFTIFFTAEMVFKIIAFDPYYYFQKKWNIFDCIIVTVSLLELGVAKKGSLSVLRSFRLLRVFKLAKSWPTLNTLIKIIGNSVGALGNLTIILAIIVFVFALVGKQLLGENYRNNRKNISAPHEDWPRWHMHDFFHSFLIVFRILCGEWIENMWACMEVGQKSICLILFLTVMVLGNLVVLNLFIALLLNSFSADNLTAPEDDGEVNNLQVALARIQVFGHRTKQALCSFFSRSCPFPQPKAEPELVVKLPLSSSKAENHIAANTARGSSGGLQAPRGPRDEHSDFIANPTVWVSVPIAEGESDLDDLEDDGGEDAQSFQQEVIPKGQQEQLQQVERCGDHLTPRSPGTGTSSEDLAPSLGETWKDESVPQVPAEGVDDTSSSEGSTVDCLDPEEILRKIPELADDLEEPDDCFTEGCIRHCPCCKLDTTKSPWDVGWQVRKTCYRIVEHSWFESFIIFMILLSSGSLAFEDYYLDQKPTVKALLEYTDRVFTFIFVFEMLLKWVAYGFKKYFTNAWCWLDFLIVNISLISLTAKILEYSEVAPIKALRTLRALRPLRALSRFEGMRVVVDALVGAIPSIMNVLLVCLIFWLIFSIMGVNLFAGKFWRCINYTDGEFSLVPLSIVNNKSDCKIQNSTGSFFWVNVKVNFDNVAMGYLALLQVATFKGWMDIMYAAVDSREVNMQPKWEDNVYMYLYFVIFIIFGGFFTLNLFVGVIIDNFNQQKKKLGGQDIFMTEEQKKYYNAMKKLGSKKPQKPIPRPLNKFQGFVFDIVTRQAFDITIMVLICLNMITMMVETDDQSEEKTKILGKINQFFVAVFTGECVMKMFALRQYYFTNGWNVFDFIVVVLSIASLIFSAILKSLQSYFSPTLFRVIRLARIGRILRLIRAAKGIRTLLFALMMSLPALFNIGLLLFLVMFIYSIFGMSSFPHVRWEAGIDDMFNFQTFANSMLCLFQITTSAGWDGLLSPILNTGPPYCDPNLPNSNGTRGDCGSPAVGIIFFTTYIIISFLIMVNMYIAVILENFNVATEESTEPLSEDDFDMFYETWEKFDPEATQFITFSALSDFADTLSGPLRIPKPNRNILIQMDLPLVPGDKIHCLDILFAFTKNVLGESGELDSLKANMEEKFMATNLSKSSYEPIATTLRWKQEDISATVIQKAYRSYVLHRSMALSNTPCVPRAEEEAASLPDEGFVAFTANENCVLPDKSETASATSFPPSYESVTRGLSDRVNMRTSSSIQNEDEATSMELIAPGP

SMILES	pIC50 [1]	pIC50 (Table 1)
CCOC(=O)C1CN(C(=O)CN2CCc3cccc(O)c3C2)c2ccccc2O1 (centres unmarked) [Compound 170, 4-[2-(8-Hydroxy-3,4-dihydro-1H-isoquinolin-2-yl)-acetyl]-3,4-dihydro-2H-benzo[1,4]oxazine-2-carboxylic acid ethyl ester]	5.77	–
COc1ccc(OC)c(C2COc3ccccc3N2C(=O)CN2CCc3cccc(OC)c3C2)c1 (centres unmarked) [Compound 213, 1-[3-(2,5-Dimethoxy-phenyl)-2,3-dihydro-benzo[1,4]oxazin-4-yl]-2-(8-methoxy-3,4-dihydro-1H-isoquinolin-2-yl)-ethanone]	5.08	–
Oc1cccc2c1CN(Cc1ccc(SC(F)(F)F)cc1)CC2 [Example 94, 2-(4-Trifluoromethylsulfanyl-benzyl)-1,2,3,4-tetrahydro-isoquinolin-8-ol]	–	5.66
COc1cccc2c1CN(CC(=O)n1c3ccccc3c3ccccc31)CC2 [Compound 204, 1-Carbazol-9-yl-2-(8-methoxy-3,4-dihydro-1H-isoquinolin-2-yl)-ethanone]	4.97	–
O=C(CN1CCc2cccc(O)c2C1)NN(c1ccccc1)c1ccccc1 [Compound 167, (8-Hydroxy-3,4-dihydro-1H-isoquinolin-2-yl)-acetic acid N′,N′-diphenyl-hydrazide]	5.35	–
O=C(CN1CCc2ccccc2C1)N1CCN(C(c2ccccc2)c2ccccc2)CC1 [Example 64, 1-(4-Benzhydryl-piperazin-1-yl)-2-(3,4-dihydro-1H-isoquinolin-2-yl)-ethanone]	–	5.50
Nc1cccc2c1CN(CC(=O)NCCCC(c1ccccc1)c1ccccc1)C2 [Compound 100, 2-(4-Amino-1,3-dihydro-isoindol-2-yl)-N-(4,4-diphenyl-butyl)-acetamide]	6.01	–
COc1cccc2c1CN(C(=O)CN(CC(=O)N1CCc3cccc(OC)c3C1)CC(c1ccccc1)c1ccccc1)CC2 [Example 36]	–	5.55
COc1cc2c(cc1OC)CN(CC(=O)NCC(c1ccccc1)c1ccccc1)CC2 [Compound 126, 2-(6,7-Dimethoxy-3,4-dihydro-1H-isoquinolin-2-yl)-N-(2,2-diphenyl-ethyl)-acetamide]	5.71	–
O=C(NCCN1CCc2cccc(O)c2C1)N1c2ccccc2Sc2ccccc21 [Compound 160, Phenothiazine-10-carboxylic acid [2-(8-hydroxy-3,4-dihydro-1H-isoquinolin-2-yl)-ethyl]-amide]	6.02	–
c1ccc(C(CN2CCc3ccccc3C2)c2ccccc2)cc1 [Example 12, 2-(2,2-Diphenyl-ethyl)1,2,3,4-tetrahydro-isoquinoline]	–	6.00
COc1cccc2c1CN(C(=O)CNC(c1ccccc1)c1ccccc1)CC2 [Example 38, 2-(Benzhydryl-amino)-1-(8-methoxy-3,4-dihydro-1H-isoquinoline-2-yl)-ethanone]	–	5.86
COc1cccc2c1CN(CC(=O)N1c3ccccc3Sc3ccc(C(C)=O)cc31)CC2 [Compound 148, 1-(2-Acetyl-phenothiazin-10-yl)-2-(8-methoxy-3,4-dihydro-1H-isoquinolin-2-yl)-ethanone]	5.29	–
Nc1cccc2c1CN(CC(=O)N1c3ccccc3Oc3ccccc31)CC2 [Compound 175, 2-(8-Amino-3,4-dihydro-1H-isoquinolin-2-yl)-1-phenoxazin-10-yl-ethanone]	5.82	–
COc1cccc2c1CN(CC(=O)Nc1ccc(Oc3ccccc3)cc1)CC2 [Compound 172, 2-(8-Methoxy-3,4-dihydro-1H-isoquinolin-2-yl)-N-(4-phenoxy-phenyl)-acetamide]	5.20	–
COc1ccc2c(c1)CCCN(CC(=O)NC(c1ccccc1)c1ccccc1)C2 [Compound 83, N-benzhydryl-2-(7-methoxy-1,3,4,5-tetrahydro-benzo[c]azepin-2-yl)-acetamide]	6.08	–
COc1cccc2c1CN(CC(=O)Nc1ccccc1Oc1ccccc1)CC2 [Compound 184, 2-(8-Methoxy-3,4-dihydro-1H-isoquinolin-2-yl)-N-(2-phenoxy-phenyl)-acetamide]	4.96	–
